Data taken from patent publication US20050010048A1 (published 2005).
Where a name gives a salt, the structure may show the parent alone.

melting point | Structure (SMILES)
148 to 150 °C | O=C(c1cc(Cc2ccccc2)cc(Cn2ccnc2)c1)c1cc(Cl)c2cccnc2c1O (as salt: TFA)
123 to 124 °C | Cc1cc(C(=O)c2cccc(Cc3ccccc3)c2)c(O)c2ncccc12
